Assay results as given in patent publication US20050013862A1, “Functional powders for oral delivery” (Vectura Limited, priority 2001, published 2005).

Experiment: Twin Stage Impinger fine particle fraction
Assay type: physicochemical
Details: glass, 12.8 mm jet
Source text: A Twin Stage Impinger Apparatus (glass with a 12.8 mm jet) was used to determine the fine particle fraction of the formulations of Examples 10, 11 (steps 1 & 2), 11 (step 1 only), 14, and 15, with the following results: […]

Average % Fine Particle Fraction at 601/min (n = 5): 3.89%
SMILES: COc1ccc2c(c1)c(CC(=O)O)c(C)n2C(=O)c1ccc(Cl)cc1 [Raw indomethacin (pulverized), indomethacin]
